Counter-ions that a name gives are not always drawn. Like-named read-outs stand apart in the source and are kept apart here.
Experiments:
Assay in all cases: Cell proliferation assay at 10 μM
[1] = tested on: A375; assay type: cell-based, human; conditions: for viability at 10 µM: Homo sapiens, read-out: Cell viability observed at 10 μM
Procedure: (§1) The human melanoma cell line A375 and colorectal carcinoma cell line HCT-116 were cultured in Dulbecco's modified Eagle's medium supplemented with 10% fetal bovine serum and 1% Penicillin-Streptomycin. The human leukemia cell line MOLM-14 was cultured in Minimum Essential Medium Alpha Medium supplemented with 10% Fetal Bovine Serum and 1% Penicillin-Streptomycin. All the cell lines were maintained at 37° C. with 5% CO2.
(§2) Briefly, adherent cells, A375 and HCT-116 cells were respectively plated at 800 or 5,000 cells per well onto 96-well plates in 90 μL of media per well and were allowed to grow overnight before the assay.
(§3) Compounds were added at different concentrations to each well, and cell cultures were incubated for 72 h. Vehicle (DMSO or H2O) was used as a control, and all compounds were tested in a constant percentage of vehicle. Cell outgrowth was measured using for adherent cells CellTiter […] Aqueous One Solution Cell Proliferation Assay (Promega) and for cell suspension, Sulforhodamine B colorimetric assay as described in Vichai et al. (Vichai, V. and Kirtikara, K. Nat. Protoc. 2006 (1) 1112-1116). Absorbance was measured using an Infinite F200 Pro or Sunrise TECAN plate reader.
(§4) In each experiment, each point represents the average of two replicates in cell culture.
(§5) Results are presented in Table 1 below for concentrations of 10 μM of tested compounds.

[2] = tested on: HCT-116; assay type: cell-based; conditions: Homo sapiens, HCT-116, 72 h, read-out: Cell viability observed at 10 μM
Procedure: as §1, §2, §3, §4, §5

[3] = tested on: MOLM-14; assay type: cell-based, human; conditions: for viability at 10 µM: Homo sapiens, read-out: Cell viability observed at 10 μM
Procedure: as §1
For MOLM-14 cell line, which grows in suspension, 30,000 cells were plated onto 96-well plates immediately before the assay.
as §3, §4, §5

[4] = A-375, A375, 10 μM, 72 h, % of cell viability remaining
[5] = HCT-116, 10 μM, 72 h, % of cell viability remaining
[6] = MOLM-14, 10 μM, 72 h, % of cell viability remaining
[7] = A375, 10 μM, 72 h, % of cell viability remaining

Structure (SMILES)	viability at 10 µM [1, 4]	viability at 10 µM [2, 5]	viability at 10 µM [3, 6]	viability at 10 µM ([1]; A-375, 72 h)	viability at 10 µM ([3]; MOLM-14, 72 h)	viability at 10 µM [2]	Cell viability observed at 10 μM [1, 7]	Cell viability observed at 10 μM [3, 6]
CCN(CC)C1CCN(C(=O)c2cc(-c3ccccc3)nc3ccccc23)CC1 [XVIII-2, 4-[4-(N,N-diethylamino)piperidin-1-ylcarbonyl]-2-phenyl-quinoline dihydrochloride]	> 80%	> 80%	> 80%					
CCN(CC)C1CCN(c2cc(-c3ccc(Br)cc3)nc3ccccc23)CC1 [VIII-6, 2-(4-bromo-phenyl)-4-(4-N,N-diethylamino-piperidin-1-yl)-quinoline dihydrochloride]		< 20%		< 20%	20 to 40%			
CCN(CC)CC1CCN(c2cc(-c3ccccc3)nc3cc(Cl)ccc23)CC1 [XXVI-4, 7-chloro-2-phenyl-4-[4-(N,N-diethylaminomethyl)-piperidin-1-yl]-quinoline hydrochloride salt]				> 80%	> 80%	> 80%		
CCN(CC)C1CCN(c2cc(-c3ccccc3)nc3ccccc23)CC1.Cl.Cl [Compound I-4, 2-phenyl-4-(4-N,N-diethylamino-piperidin-1-yl)quinoline dihydrochloride]							− (cell viability %>80)	+ (cell viability 60>%<80)
CC(NC1CCN(Cc2ccccc2)CC1)c1cc(-c2ccccc2)nc2ccccc12 (stereo not shown) [XXXIV-2, 2-phenyl-4-{1-[(N-benzyl-piperidin-4-yl)amino]-eth-1-yl}quinoline hydrochloride salt]				< 20%	40 to 60%	20 to 40%		
CN(C)CCN(C)Cc1cc(-c2ccccc2)nc2cc(Cl)ccc12 [XXXVIII-2, N^1,N^1,N^2-trimethyl-N^2-(2-phenyl-7-chloro-quinoline-4-ylmethyl)-ethane-1,2-diamine hydrochloride salt]				< 20%	40 to 60%	< 20%		
O=C(NC1CCN(Cc2ccccc2)CC1)c1cc(-c2ccccc2)nc2cc(Cl)ccc12 [XXXII-2, N-(1-benzylpiperidin-4-yl)-7-chloro-2-phenylquinoline-4-carboxamide hydrochloride salt]				> 80%	40 to 60%	> 80%		
CCN(CC)C1CCN(c2cc(-c3ccc(Cl)cc3)nc3ccccc23)CC1 [Compound X-6, 2-(4-chloro-phenyl)-4-(4-N,N-diethylamino-piperidin-1-yl)quinoline dihydrochloride]				< 20%	40 to 60%	< 20%		
CCN(CC)C1CCN(c2cc(-c3ccccc3)nc3ccccc23)CC1 [Compound I-3, 2-phenyl-4-(4-N,N-diethylamino-piperidin-1-yl)quinoline]	> 80%	> 80%	60 to 80%					
CC(C)(C)NC1CCN(c2cc(-c3ccccc3)nc3ccccc23)CC1 [IV-2, 2-phenyl-4-(4-N-tert-butylamino-piperidin-1-yl)quinoline dihydrochloride]				40 to 60%	20 to 40%	60 to 80%		
CN(C)CCCNC(=O)c1cc(-c2ccccc2)nc2cc(Cl)ccc12 [XLIII-2, N-[3-(dimethylamino)propyl]-7-chloro-2-phenylquinoline-4-carboxamide hydrochloride salt]				< 20%	60 to 80%	> 80%		
CC(NC1CCN(Cc2ccccc2)CC1)c1cc(-c2ccccc2)nc2cc(Cl)ccc12 (stereo not shown) [XXXV-2, 7-chloro-2-phenyl-4-{1-[(N-benzyl-piperidin-4-yl)amino]-eth-1-yl}quinoline hydrochloride salt]				> 80%	> 80%	> 80%		
CN(C)CCCNc1cc(-c2ccccc2)nc2ccccc12.Cl.Cl [XLI-2, N^1,N^1-dimethyl-N^3-(2-phenylquinoline-4-yl)propane-1,3-diamine hydrochloride salt]							++++ (cell viability %<20)	++++ (cell viability %<20)
